pIC50: −log10 of the molar value.
Tested on: PDE1
Test: In vitro HTRF PDE1 inhibition assay
Assay type: biochemical
Settings: HTRF cGMP assay, 100 nM cyclic GMP, PDE (1A3, 1B or 1C) with calmodulin, 45 minutes at 37° C.; isoform of the tabulated values not stated
Summary of the method: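 HTRF cGMP competition assay: PDE1A3, 1B or 1C with calmodulin acting on 100 nM cGMP in 1% DMSO, pH 7.4 buffer with Ca2+ and Mg2+, 45 min at 37 °C. Remaining cGMP detected with d2-cGMP and anti-cGMP cryptate (665/615 nm); IC50 reported as banded categories.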

| pIC50 | SMILES |
| --- | --- |
| < 5.00 | CC(C)n1ncc2c(=O)n3c(nc21)C(Cc1ccccc1)N(Cc1ccccc1)CC3 (racemic) [Compound I-36, (±)-8,9-Dibenzyl-1-Isopropyl-6,7,8,9-tetrahydropyrazino[1,2-a]pyrazolo[3,4-d]pyrimidin-4(1H)-one] |
| < 5.00 | CC(C)n1ncc2c(=O)n3c(nc21)CN(Cc1ccccc1)C(c1ccccc1)C3 (racemic) [Compound I-108, (±)-8-Benzyl-1-isopropyl-7-phenyl-6,7,8,9-tetrahydropyrazino[1,2-a]pyrazolo[3,4-d]pyrimidin-4(1H)-one] |
| 5.00 to 6.00 | COc1ccc(CCN2CCn3c(nn4c(C5CCCC5)ncc4c3=O)C2)cc1 [Compound I-244, 3-Cyclopentyl-7-(4-methoxyphenethyl)-8,9-dihydro-6H-imidazo[5,1-f]pyrazino[2,1-c][1,2,4]triazin-11(7H)-one] |
| 5.00 to 6.00 | O=c1c2cnn(C3CCOC3)c2nc2n1CCN(c1ccccc1)C2 (racemic) [Compound I-216, (±)-8-Phenyl-1-(tetrahydrofuran-3-yl)-6,7,8,9-tetrahydropyrazino[1,2-a]pyrazolo[3,4-d]pyrimidin-4(1H)-one] |
| 5.00 to 6.00 | CCC1Cn2c(nc3c(cnn3C(C)C)c2=O)CN1Cc1ccc(Cl)cc1 (racemic) [Compound I-154, (±)-8-(4-Chlorobenzyl)-7-ethyl-1-isopropyl-6,7,8,9-tetrahydropyrazino[1,2-a]pyrazolo[3,4-d]pyrimidin-4(1H)-one] |
| > 6.00 | O=c1c2cnc(C3CCOC3)n2nc2n1CCN(Cc1ccccc1)C2 (racemic) [Compound I-231, (±)-7-Benzyl-3-(tetrahydrofuran-3-yl)-8,9-dihydro-6H-imidazo[5,1-f]pyrazino[2,1-c][1,2,4]triazin-11(7H)-one] |
| < 5.00 | Cc1cnc(CN2CCn3c(nc4c(cnn4C(C)C)c3=O)C2)nc1 [Compound I-198, 1-Isopropyl-8-((5-methylpyrimidin-2-yl)methyl)-6,7,8,9-tetrahydropyrazino[1,2-a]pyrazolo[3,4-d]pyrimidin-4(1H)-one] |
| > 6.00 | O=c1c2cnc(C3CCOCC3)n2nc2n1CCN(Cc1ccc(Cl)cc1)C2 [Compound I-235, 7-(4-Chlorobenzyl)-3-(tetrahydro-2H-pyran-4-yl)-8,9-dihydro-6H-imidazo[5,1-f]pyrazino[2,1-c][1,2,4]triazin-11(7H)-one] |
| < 5.00 | CC(C)c1n[nH]c2c(=O)n3c(nc12)C(C)NCC3 (racemic) [Compound I-11, (±)-3-Isopropyl-5-methyl-5,6,7,8-tetrahydropyrazino[1,2-a]pyrazolo[4,3-d]pyrimidin-10(1H)-one] |
| > 6.00 | CC1Cn2c(nc3c(cnn3C(C)C)c2=O)CN1Cc1ccc(Cl)cc1 (racemic) [Compound I-147, (±)-8-(4-Chlorobenzyl)-1-isopropyl-7-methyl-6,7,8,9-tetrahydropyrazino[1,2-a]pyrazolo[3,4-d]pyrimidin-4(1H)-one] |
| < 5.00 | CN1CCn2c(nc3c(cnn3C)c2=O)C1Cc1ccccc1 (racemic) [Compound I-24, (±)-9-Benzyl-1,8-dimethyl-6,7,8,9-tetrahydropyrazino[1,2-a]pyrazolo[3,4-d]pyrimidin-4(1H)-one] |
| 5.00 to 6.00 | Cc1cnc(CN2CCn3c(nn4c(C5CCCC5)ncc4c3=O)C2)nc1 [Compound I-201] |
| < 5.00 | CN1CCn2c(nc3c(cnn3C)c2=O)C1 [Compound I-17, 1,8-Dimethyl-6,7,8,9-tetrahydropyrazino[1,2-a]pyrazolo[3,4-d]pyrimidin-4(1H)-one] |
| > 6.00 | CC(C)Cn1ncc2c(=O)n3c(nc21)CN(Cc1cccc(Cl)c1)CC3 [Compound I-71, 8-(3-Chlorobenzyl)-1-isobutyl-6,7,8,9-tetrahydropyrazino[1,2-a]pyrazolo[3,4-d]pyrimidin-4(1B)-one] |
| < 5.00 | CC1c2nc3c(cnn3C(C)C)c(=O)n2CCN1Cc1ccccc1 (racemic) [Compound I-32, (±)-8-Benzyl-1-isopropyl-9-methyl-6,7,8,9-tetrahydropyrazino[1,2-a]pyrazolo[3,4-d]pyrimidin-4(1H)-one] |
| > 6.00 | CC(C)Cn1ncc2c(=O)n3c(nc21)CN(c1ccc(Cl)cc1)CC3 [Compound I-92, 8-(4-Chlorophenyl)-1-isobutyl-6,7,8,9-tetrahydropyrazino[1,2-a]pyrazolo[3,4-d]pyrimidin-4(1H)-one] |
| < 5.00 | COc1cc(CN2CCn3c(nc4c(cnn4C(C)C)c3=O)C2)ccc1F [Compound I-139, 8-(4-Fluoro-3-methoxybenzyl)-1-isopropyl-6,7,8,9-tetrahydropyrazino[1,2-a]pyrazolo[3,4-d]pyrimidin-4(1H)-one] |
| < 5.00 | CN1Cc2nc3c(cnn3C3CCCC3)c(=O)n2C(c2ccccc2)C1 (racemic) [Compound I-102, (±)-1-cyclopentyl-8-methyl-6-phenyl-6,7,8,9-tetrahydropyrazino[1,2-a]pyrazolo[3,4-d]pyrimidin-4(1H)-one] |

Second part, the compound before the results:

| SMILES | pIC50 |
| --- | --- |
| CC(C)Cn1ncc2c(=O)n3c(nc21)CN(c1cccc(Cl)c1)CC3 [Compound I-89, 8-(3-Chlorophenyl)-1-isobutyl-6,7,8,9-tetrahydropyrazino[1,2-a]pyrazolo[3,4-d]pyrimidin-4(1H)-one] | > 6.00 |
| O=c1c2cnc(C3CCCC3)n2nc2n1CCN(Cc1ccc(Cl)cc1)C2 [Compound I-134, 7-(4-Chlorobenzyl)-3-cyclopentyl-8,9-dihydro-6H-imdazo[5,1-f]pyrazino[2,1-c][1,2,4]triazin-11(7H)-one] | > 6.00 |
| CC(C)c1n[nH]c2c(=O)n3c(nc12)CN(Cc1ccccc1)CC3 [Compound I-43, 6-Benzyl-3-isopropyl-5,6,7,8-tetrahydropyrazino[1,2-a]pyrazolo[4,3-d]pyrimidin-10(1H)-one] | < 5.00 |
| O=c1c2c(Nc3ccccc3)n[nH]c2nc2n1CCN(Cc1ccccc1)C2 [Compound I-50] | < 5.00 |
| COc1ccc(CN2CCn3c(nc4c(cnn4C4CCCC4)c3=O)C2)cc1 [Compound I-84, 1-Cyclopentyl-8-(4-methoxybenzyl)-6,7,8,9-tetrahydropyrazino[1,2-a]pyrazolo[3,4-d]pyrimidin-4(1H)-one] | > 6.00 |
| CC1c2nc3c(cnn3C3CCCC3)c(=O)n2CCN1Cc1ccc(Cl)cc1 (racemic) [Compound I-117, (±)-8-(4-Chlorobenzyl)-1-cyclopentyl-9-methyl-6,7,8,9-tetrahydropyrazino[1,2-a]pyrazolo[3,4-d]pyrimidin-4(1H)-one] | 5.00 to 6.00 |
| Cn1ncc2c(=O)n3c(nc21)C(Cc1ccccc1)NCC3 (racemic) [Compound I-7, (±)-9-Benzyl-1-methyl-6,7,8,9-tetrahydropyrazino[1,2-a]pyrazolo[3,4-d]pyrimidin-4(1H)-one] | < 5.00 |
| O=c1c2cnc(C3CCOC3)n2nc2n1CCN(c1ccccc1)C2 (racemic) [Compound I-229, (±)-7-Phenyl-3-(tetrahydrofuran-3-yl)-8,9-dihydro-6H-imidazo[5,1-f]pyrazino[2,1-c][1,2,4]triazin-11(7H)-one] | > 6.00 |
| CC(C)n1ncc2c(=O)n3c(nc21)CN(Cc1ccc(F)cc1)CC3 [Compound I-138, 8-(4-Fluorobenzyl)-1-isopropyl-6,7,8,9-tetrahydropyrazino[1,2-a]pyrazolo[3,4-d]pyrimidin-4(1H)-one] | < 5.00 |
| CC(C)n1ncc2c(=O)n3c(nc21)CN(C)C(c1ccccc1)C3 (racemic) [Compound I-107, (±)-1-Isopropyl-8-methyl-7-phenyl-6,7,8,9-tetrahydropyrazino[1,2-a]pyrazolo[3,4-d]pyrimidin-4(1H)-one] | < 5.00 |
| COCCn1ncc2c(=O)n3c(nc21)CN(Cc1ccc(Cl)c(Cl)c1)CC3 [Compound I-160, 8-(3,4-Dichlorobenzyl)-1-(2-methoxyethyl)-6,7,8,9-tetrahydropyrazino[1,2-a]pyrazolo[3,4-d]pyrimidin-4(1H)-one] | < 5.00 |
| O=c1c2cnn(C3CCCC3)c2nc2n1CCN(Cc1ccccc1Cl)C2 [Compound I-69, 8-(2-Chlorobenzyl)-1-cyclopentyl-6,7,8,9-tetrahydropyrazino[1,2-a]pyrazolo[3,4-d]pyrimidin-4(1H)-one] | > 6.00 |
| Cc1ccc(CN2CCn3c(nn4c(C(C)C)ncc4c3=O)C2)cn1 [Compound I-188, 3-Isopropyl-7-((6-methylpyridin-3-yl)methyl)-8,9-dihydro-6H-imidazo[5,1-f]pyrazino[2,1-c][1,2,4]triazin-11(7H)-one] | 5.00 to 6.00 |
| CC(C)n1ncc2c(=O)n3c(nc21)CN(Cc1cccc(F)c1)CC3 [Compound I-137, 8-(3-Fluorobenzyl)-1-isopropyl-6,7,8,9-tetrahydropyrazino[1,2-a]pyrazolo[3,4-d]pyrimidin-4(1H)-one] | 5.00 to 6.00 |
| COc1ccc(CN2CCn3c(nc4c(cnn4C4CCOCC4)c3=O)C2)cc1 [Compound I-210, 8-(4-Methoxybenzyl)-1-(tetrahydro-2H-pyran-4-yl)-6,7,8,9-tetrahydropyrazino[1,2-a]pyrazolo[3,4-d]pyrimidin-4(1H)-one] | 5.00 to 6.00 |
| COc1ccc(CN2CCCn3c(nc4c(cnn4C(C)C)c3=O)C2)cc1 [Compound I-156, 1-Isopropyl-9-(4-methoxybenzyl)-7,8,9,10-tetrahydro-1H-pyrazolo[3′,4′:4,5]pyrimido[1,2-a][1,4]diazepin-4(6H)-one] | 5.00 to 6.00 |
| CC(C)n1ncc2c(=O)n3c(nc21)CN(C)C(Cc1ccccc1)C3 (racemic) [Compound I-110, (±)-7-Benzyl-1-isopropyl-8-methyl-6,7,8,9-tetrahydropyrazino[1,2-a]pyrazolo[3,4-d]pyrimidin-4(1H)-one] | < 5.00 |
| CCCn1ncc2c(=O)n3c(nc21)CN(Cc1ccc2c(c1)OCO2)CC3 [Compound I-255, 8-(Benzo[d][1,3]dioxol-5-ylmethyl)-1-propyl-6,7,8,9-tetrahydropyrazino[1,2-a]pyrazolo[3,4-d]pyrimidin-4(1H)-one] | 5.00 to 6.00 |
| COc1ccccc1CN1CCn2c(nc3c(cnn3C(C)C)c2=O)C1 [Compound I-76, 1-Isopropyl-8-(2-methoxybenzyl)-6,7,8,9-tetrahydropyrazino[1,2-a]pyrazolo[3,4-d]pyrimidin-4(1H)-one] | 5.00 to 6.00 |
